From patent US11560391B2, “Sulfonylurea compounds as inhibitors of interleukin-1 activity” (Genentech, Inc., priority 2018, dated 2023)
Read-outs that look alike come from different tables or passages of the source.

How the values were obtained:
[1] = system: THP-1 ASC-GFP cells; assay: THP-1 ASC-GFP speck assay (NLRP3 inflammasome activation, nigericin); assay type: cell-based; conditions: THP1-ASC-GFP; PMA-differentiated, LPS primed, 10 μM nigericin
Protocol: THP-1 ASC-GFP cell line was purchased from Invivogen, San Diego, for infammasome activation assay. THP-1 ASC-GFP cells stably express a 37.6 kDa ASC::GFP fusion protein that enables monitoring of spec formation by microscopy after activation of NLRP3 dependent inflammasome pathway. Cells were maintained at a density of 600,000 cells/mL in growth media consisting of RPMI 1640, 2 mM L-glutamine, 25 mM HEPES and 10% heat inactivated fetal bovine serum at 37° C. and 5% CO2. Cells were passaged every 3-4 days and used for assays for up to 20 passages.
THP-1 ASC-GFP cells were collected by centrifuging cells at 800 RPM for 5 minutes. Cell culture supernatant was removed and cells were re-suspended in fresh media at density of 1×10^6 cells/mL in assay media consisting of RPMI 1640, 2 mM L-glutamine, 25 mM HEPES and 10% heat inactivated fetal bovine serum. Phorbol 12-myristate 13-acetate (PMA) (Invivogen,tlrl-pma) was added to the cell suspension at a final concentration of 500 ng/ml and mixed thoroughly. 40,000 cells were added per well of a 384 well plate and differentiated into macrophages overnight at 37° C. and 5% CO2. Cells were primed with 1 μg/mL of lipopolysaccharide (Invivogen Ultrapure lipopolysaccharide from E. coli, tlrl-3pelps) in assay media for 3 hours at 37° C. and 5% CO2. After priming, media was removed and THP-1 ASC-GFP cells were preincubated with serially diluted test compounds with starting concentration of 40 μM followed by 2-fold dilution for a 20-point curve or vehicle (DMSO) for 30 min in assay media at 37° C. and 5% CO2. Cells were then stimulated with 10 μM nigericin (Invivogen, tlrl-nig-5) for 90 min at 37° C. and 5% CO2 to activate NLRP3 dependent inflammasome pathway and spec formation. After stimulation, cells were fixed with 4.8% paraformaldehyde (Electron Microscopy Sciences #15710-S) and incubated at room temperature for 15 min. Cells were then washed 3-times with 100 μL of phosphate buffered saline and permeabilized in the presence of premeablization/block buffer for 20 min at room temperature. Cells were then washed 3-times with 100 μL phosphate buffered saline and incubated for 1 hr at room temperature in the presence of hoechst. After staining with Hoechst, cells were washed 3-times with 100 μL phosphate buffered saline and imaged for ASC spec formation.
THP-1 ASC-GFP cells were imaged in 488 and Hoechst channels. Hoechst channel was used for cell count and 488 channel was used to identify number of GFP ASC specks in imaged fields. Percentage of cells with a spec was calculated by dividing the number of GFP positive spots by total number of cells.

[2] = target: T1, NLRP3 inflammasome (Homo sapiens, UniProt Q96P20); assay: NLRP3 inflammasome activation assay in LPS-primed, nigericin-stimulated PBMCs, IL-1β release; assay type: cell-based; conditions: PBMC, LPS priming, 10 μM nigericin
T1 construct: freshly isolated from human peripheral blood from healthy donors; StemCells Technologies; host or cells: primary human PBMCs
Outline: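 Fresh or cryopreserved human PBMCs primed with 100 ng/mL LPS for 3 h, pre-incubated 30 min with compound (0.00017-10 uM, or 2-fold 20-point series from 40 μM), then stimulated with 10 μM nigericin for 1.5 h at 37 °C. Supernatant IL-1β measured by ELISA or by HTRF (665/620 ratio).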

T1 sequence (Q96P20 whole entry): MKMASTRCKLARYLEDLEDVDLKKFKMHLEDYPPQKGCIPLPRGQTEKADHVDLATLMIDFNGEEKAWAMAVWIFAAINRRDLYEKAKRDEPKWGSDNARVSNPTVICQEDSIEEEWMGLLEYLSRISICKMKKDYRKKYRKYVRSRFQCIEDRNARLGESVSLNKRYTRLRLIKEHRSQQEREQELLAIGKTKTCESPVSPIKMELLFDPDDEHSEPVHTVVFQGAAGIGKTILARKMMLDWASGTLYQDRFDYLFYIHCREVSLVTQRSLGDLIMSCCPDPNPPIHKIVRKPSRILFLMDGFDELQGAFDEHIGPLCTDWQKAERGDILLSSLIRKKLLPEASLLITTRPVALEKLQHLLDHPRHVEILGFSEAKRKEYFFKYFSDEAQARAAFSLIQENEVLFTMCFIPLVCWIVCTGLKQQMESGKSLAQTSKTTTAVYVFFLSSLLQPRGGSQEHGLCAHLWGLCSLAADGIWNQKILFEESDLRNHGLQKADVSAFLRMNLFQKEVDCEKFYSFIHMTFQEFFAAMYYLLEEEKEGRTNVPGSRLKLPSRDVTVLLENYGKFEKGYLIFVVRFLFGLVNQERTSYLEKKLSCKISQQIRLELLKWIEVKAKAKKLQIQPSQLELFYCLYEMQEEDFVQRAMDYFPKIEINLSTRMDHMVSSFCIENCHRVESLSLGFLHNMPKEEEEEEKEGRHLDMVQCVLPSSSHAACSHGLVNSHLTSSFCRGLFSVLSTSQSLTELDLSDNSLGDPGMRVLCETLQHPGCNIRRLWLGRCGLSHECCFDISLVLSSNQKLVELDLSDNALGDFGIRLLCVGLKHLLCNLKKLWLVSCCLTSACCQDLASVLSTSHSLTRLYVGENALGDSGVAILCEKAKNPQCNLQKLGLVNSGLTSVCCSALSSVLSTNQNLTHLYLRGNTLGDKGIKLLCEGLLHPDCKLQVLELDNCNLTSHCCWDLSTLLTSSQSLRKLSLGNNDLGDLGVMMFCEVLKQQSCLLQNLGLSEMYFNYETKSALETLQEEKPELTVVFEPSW

Structure (SMILES) | IC50 [1] | IC50 ([2]; read-out: PMBC IL-1β IC50) | IC50 ([2]; PMBC IL-1β IC50 (μM))
Cc1cc(C2CC2)nc(NC(=O)NS(=O)(=O)c2cnn3c2OCCC3)n1 [Example 21, N-((4-cyclopropyl-6-methylpyrimidin-2-yl)carbamoyl)-6,7-dihydro-5H-pyrazolo[5,1-b][1,3]oxazine-3-sulfonamide] | 12 µM | > 10 µM | –
COc1cc(C)nc(NC(=O)NS(=O)(=O)c2cnn3c2OCCC3)n1 [Example 19, N-((4-methoxy-6-methylpyrimidin-2-yl)carbamoyl)-6,7-dihydro-5H-pyrazolo[5,1-b][1,3]oxazine-3-sulfonamide] | > 20 µM | – | > 10 µM
O=C(Nc1nc(Cl)cc(Cl)n1)NS(=O)(=O)c1cnn2c1OCCC2 [Example 4, N-((4,6-dichloropyrimidin-2-yl)carbamoyl)-6,7-dihydro-5H-pyrazolo[5,1-b][1,3]oxazine-3-sulfonamide] | > 20 µM | > 10 µM | –
CC(C)(C)c1cc(C(C)(C)C)nc(NC(=O)NS(=O)(=O)c2cnn3c2OCCC3)n1 [Example 22, N-((4,6-di-tert-butylpyrimidin-2-yl)carbamoyl)-6,7-dihydro-5H-pyrazolo[5,1-b][1,3]oxazine-3-sulfonamide] | > 20 µM | > 10 µM | –
Cc1cc(C)nc(NC(=O)NS(=O)(=O)c2cnn3c2OCCC3)n1 [Example 25, N-((4,6-dimethylpyrimidin-2-yl)carbamoyl)-6,7-dihydro-5H-pyrazolo[5,1-b][1,3]oxazine-3-sulfonamide] | > 20 µM | > 10 µM | –
COc1cc(OC)nc(NC(=O)NS(=O)(=O)c2cnn3c2OCCC3)n1 [Example 18, N-((4,6-dimethoxypyrimidin-2-yl)carbamoyl)-6,7-dihydro-5H-pyrazolo[5,1-b][1,3]oxazine-3-sulfonamide] | > 20 µM | – | > 10 µM
CCn1nc(C(C)C)c(NC(=O)NS(=O)(=O)c2cnn3c2OC[C@@H](NC)C3)c1C(C)C [Example 66a, (S)—N-((1-ethyl-3,5-diisopropyl-1H-pyrazol-4-yl)carbamoyl)-6-(methylamino)-6,7-dihydro-5H-pyrazolo[5,1-b][1,3]oxazine-3-sulfonamide, ammonia] | 3.6 µM | – | –
CC(C)n1nc2c(c1NC(=O)NS(=O)(=O)c1cnn3c1OC[C@@H](N(C)C)C3)CCC2 [Example 77a, (S)-6-(dimethylamino)-N-((2-isopropyl-2,4,5,6-tetrahydrocyclopenta[c]pyrazol-3-yl)carbamoyl)-6,7-dihydro-5H-pyrazolo[5,1-b][1,3]oxazine-3-sulfonamide] | 1.9 µM | – | –
CN[C@@H]1COc2c(S(=O)(=O)NC(=O)Nc3c(C(C)C)nn(C(F)(F)F)c3C(C)C)cnn2C1 [Example 64a, (S)—N-((3,5-diisopropyl-1-(trifluoromethyl)-1H-pyrazol-4-yl)carbamoyl)-6-(methylamino)-6,7-dihydro-5H-pyrazolo[5,1-b][1,3]oxazine-3-sulfonamide, ammonia] | 0.24 µM | – | –
CC(C)c1cc(C(F)(F)F)nc(C(C)C)c1NC(=O)NS(=O)(=O)c1cnn2c1OC[C@@H](N(C)C)C2 [Example 76a, (S)—N-((2,4-diisopropyl-6-(trifluoromethyl)pyridin-3-yl)carbamoyl)-6-(dimethylamino)-6,7-dihydro-5H-pyrazolo[5,1-b][1,3]oxazine-3-sulfonamide] | 0.56 µM | – | –
CC(C)c1cc(Cl)nc(NC(=O)NS(=O)(=O)c2cnn3c2OCCC3)n1 [Example 16, N-((4-chloro-6-isopropylpyrimidin-2-yl)carbamoyl)-6,7-dihydro-5H-pyrazolo[5,1-b][1,3]oxazine-3-sulfonamide] | > 20 µM | > 10 µM | –
CN[C@@H]1COc2c(S(=O)(=O)NC(=O)Nc3c(C(C)C)nn(C)c3C(C)C)cnn2C1 [Example 73a, (S)—N-((3,5-diisopropyl-1-methyl-1H-pyrazol-4-yl)carbamoyl)-6-(methylamino)-6,7-dihydro-5H-pyrazolo[5,1-b][1,3]oxazine-3-sulfonamide, ammonia] | 8.7 µM | – | –
CC(C)c1nn(CC(F)F)c(C(C)C)c1NC(=O)NS(=O)(=O)c1cnn2c1OCCC2 [Example 63, N-((1-(2,2-difluoroethyl)-3,5-diisopropyl-1H-pyrazol-4-yl)carbamoyl)-6,7-dihydro-5H-pyrazolo[5,1-b][1,3]oxazine-3-sulfonamide, ammonia] | 0.35 µM | – | –
CN[C@@H]1COc2c(S(=O)(=O)NC(=O)Nc3c(C(C)C)nn(CC(F)(F)F)c3C(C)C)cnn2C1 [Example 72a, (S)—N-((3,5-diisopropyl-1-(2,2,2-trifluoroethyl)-1H-pyrazol-4-yl)carbamoyl)-6-(methylamino)-6,7-dihydro-5H-pyrazolo[5,1-b][1,3]oxazine-3-sulfonamide, ammonia] | 2.5 µM | – | –
COc1cc(-c2nc(C(F)(F)F)cc(C(C)C)c2NC(=O)NS(=O)(=O)c2cnn3c2OCCC3)ccn1 [Example 74, Sodium N-((4-isopropyl-2′-methoxy-6-(trifluoromethyl)-[2,4′-bipyridin]-3-yl)carbamoyl)-6,7-dihydro-5H-pyrazolo[5,1-b][1,3]oxazine-3-sulfonamide] | 0.34 µM | – | –
Cc1nc(NC(=O)NS(=O)(=O)c2cnn3c2OCCC3)nc2c1CCCC2 [Example 24, N-((4-methyl-5,6,7,8-tetrahydroquinazolin-2-yl)carbamoyl)-6,7-dihydro-5H-pyrazolo[5,1-b][1,3]oxazine-3-sulfonamide] | > 20 µM | > 10 µM | –
COc1cc(-c2cc(C(F)(F)F)nc(C(C)C)c2NC(=O)NS(=O)(=O)c2cnn3c2OCCC3)ccn1 [Example 69, Sodium N-((2-isopropyl-2′-methoxy-6-(trifluoromethyl)-[4,4′-bipyridin]-3-yl)carbamoyl)-6,7-dihydro-5H-pyrazolo[5,1-b][1,3]oxazine-3-sulfonamide] | 0.52 µM | – | –
O=C(Nc1nc(-c2ccccc2)cc(C(F)(F)F)n1)NS(=O)(=O)c1cnn2c1OCCC2 [Example 17, N-((4-phenyl-6-(trifluoromethyl)pyrimidin-2-yl)carbamoyl)-6,7-dihydro-5H-pyrazolo[5,1-b][1,3]oxazine-3-sulfonamide] | > 9.8 µM | > 10 µM | –
O=C(Nc1nc(-c2ccccc2)cc2c1CCC2)NS(=O)(=O)c1cnn2c1OCCC2 [Example 23, N-((3-phenyl-6,7-dihydro-5H-cyclopenta[c]pyridin-1-yl)carbamoyl)-6,7-dihydro-5H-pyrazolo[5,1-b][1,3]oxazine-3-sulfonamide] | > 20 µM | > 10 µM | –
CC(C)c1nn(C(F)(F)F)c(C(C)C)c1NC(=O)NS(=O)(=O)c1cnn2c1OCCC2 [Example 67, N-((3,5-diisopropyl-1-(trifluoromethyl)-1H-pyrazol-4-yl)carbamoyl)-6,7-dihydro-5H-pyrazolo[5,1-b][1,3]oxazine-3-sulfonamide, ammonia] | 0.17 µM | – | –
CO[C@@H]1COc2c(S(=O)(=O)NC(=O)Nc3c(C(C)C)cc(C(F)(F)F)nc3C(C)C)cnn2C1 [Example 80a, (S)—N-((2,4-diisopropyl-6-(trifluoromethyl)pyridin-3-yl)carbamoyl)-6-methoxy-6,7-dihydro-5H-pyrazolo[5,1-b][1,3]oxazine-3-sulfonamide, ammonia] | 0.15 µM | – | –
CO[C@@H]1COc2c(S(=O)(=O)NC(=O)Nc3c4c(nn3C(C)C)CCC4)cnn2C1 [Example 60a, Sodium (S)—N-((2-isopropyl-2,4,5,6-tetrahydrocyclopenta[c]pyrazol-3-yl)carbamoyl)-6-methoxy-6,7-dihydro-5H-pyrazolo[5,1-b][1,3]oxazine-3-sulfonamide] | 0.57 µM | – | –
